# PMC10746112, “Synthesis and Pro-Apoptotic Effects of Nitrovinylanthracenes and Related Compounds in Chronic Lymphocytic Leukaemia (CLL) and Burkitt’s Lymphoma (BL)” (Molecules, 2023)
# Key:
# DG-75 cells = system: DG-75 cells; design: method as in earlier work; settings: nitrostyrenes and taxol, MTT assay, reported data; cited from earlier work
# [1] = system: DG-75 Burkitt’s lymphoma cell line; settings: nitrostyrenes, 1 µM, 48 h; cited from earlier work
# MUTU-I BL cells = assay: Annexin V/PI apoptotic assay (FACS); assay type: cell-based; settings: 10 µM, 24 h, total (early + late) apoptosis
# Protocol: (§1) The chemotherapeutic drug taxol was used as a positive control. The pro-apoptotic effects of the selected nitrostyrene compounds 11g, 11h, 11i, 11j, 11k and 11l (10 μM) were determined using FITC (fluorescein isothiocyanate), Annexin V/PI (propidium iodide) staining and FACS (fluorescence-activated cell sorting) analysis to characterise the mode of cellular death induced by the synthesised compounds. Four populations were produced in this assay: Annexin-V- and PI-negative (Q4, healthy cells), Annexin-V-positive and PI-negative (Q3, early apoptosis), Annexin-V- and PI-positive (Q2, late apoptosis) and Annexin-V-negative and PI-positive (Q1, necrosis), which were easily identified and quantified. Apoptosis was assessed as % total apoptosis by a combination of early and late apoptosis (Q3 and Q2, respectively). […] The identification of compounds that can induce apoptosis in cancer cells is required in the development of potential lead structures for anticancer drugs.
# (§2) The BL cells DG-75 and MUTU-I (750,000) were treated at 37 °C with either vehicle (0.1% (v/v) EtOH), […] taxol (10 μM) and incubated for 24 h (MUTU-1) or 48 h (DG-75). The CLL cells PGA1 and HG3 (1 × 10^6 cells/mL) were treated at 37 °C with either vehicle (1% (v/v) DMSO) or the nitrostyrene compounds 19a (10 μM, 5 μM and 1 μM) and 19g, 19i, 19l and 19m (10 μM and 1 μM) for 48 h. The cells were then harvested by centrifugation at 400× g in a temperature-controlled Sorvall centrifuge and rinsed with 0.5 mL of Ca^2+ Annexin-V-binding buffer (0.1 M HEPES, pH 7.4; 0.14 M NaCl; 25 mM CaCl2). The samples were resuspended in 50 µL FITC Annexin V (diluted 1:33 in Ca^2+ Annexin V-binding buffer), incubated on ice for 10 min (protected from light), washed with Annexin-V-binding buffer and re-suspended in 500 µL of propidium iodide (PI) solution (0.5 µg/mL). The samples were analysed within 1 h using a BD Accuri C6 flow cytometer counting 10,000 cells and analysed using the FlowJo software (FlowJo LLC, Ashland, OR, USA) package.
# DG-75 BL cells = assay: Annexin V/PI apoptotic assay (FACS); assay type: cell-based; settings: 10 µM, 48 h, total (early + late) apoptosis
# Protocol: as §1, §2
# MUTU-1 cells = system: MUTU-1 cells; design: method as in earlier work; settings: nitrostyrenes and taxol, MTT assay, reported data; cited from earlier work
compound,measurement,setting,value
C/C(=C\c1cccc(Cl)c1)[N+](=O)[O-] [Compound 11h],IC50,DG-75 cells,2250 nM
same,% Viable Cells Remaining DG-75 48 h 1 µM,[1],84.50%
same,MUTU-I Apoptosis (%),MUTU-I BL cells,82.6%
same,DG-75 Apoptosis (%),DG-75 BL cells,92.0%
same,IC50,MUTU-1 cells,880 nM
